The values that follow come from ChEMBL document CHEMBL1201862, “PubChem BioAssay data set” (2004).

One test has as its target T1, Hexokinase (Trypanosoma brucei, UniProt Q38C41).
T1 sequence (Q38C41 whole entry): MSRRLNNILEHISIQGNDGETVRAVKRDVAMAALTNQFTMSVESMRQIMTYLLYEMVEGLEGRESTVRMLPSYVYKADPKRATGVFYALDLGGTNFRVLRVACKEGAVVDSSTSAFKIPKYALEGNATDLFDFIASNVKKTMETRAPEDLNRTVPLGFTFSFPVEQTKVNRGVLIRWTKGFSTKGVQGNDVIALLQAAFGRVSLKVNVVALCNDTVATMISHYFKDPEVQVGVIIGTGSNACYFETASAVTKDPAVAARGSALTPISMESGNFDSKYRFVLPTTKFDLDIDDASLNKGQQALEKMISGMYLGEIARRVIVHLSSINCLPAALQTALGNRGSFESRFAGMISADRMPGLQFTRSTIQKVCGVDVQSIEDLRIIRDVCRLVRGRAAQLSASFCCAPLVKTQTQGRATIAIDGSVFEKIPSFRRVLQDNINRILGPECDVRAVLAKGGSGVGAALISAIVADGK
Briefly: Confirmation assay for inhibitors of Trypanosoma brucei hexokinase 1-Analogue-first series. [Related pubchem assays (depositor defined):AID1430, AID1632, AID2516, AID2560, AID2579, AID2600, AID449725, AID492951]. The test is classed as functional.

Test [1] in a line: Vero E6 cell cytotoxicity, dose response, cytotoxicity control for non-replicating M. tuberculosis project, secondary assay (AID 492998). Format: functional, VeroE6. The note with it: Vero C1008.
Test [2] in a line: HepG2 cell cytotoxicity, dose response, cytotoxicity control for non-replicating M. tuberculosis project (AID 489018). Format: functional. The note with it: Mycobacterium tuberculosis.
A short description of the next test: cells. The test is classed as functional.
Test [3] can be described thus: THP-1 cell cytotoxicity, dose response, cytotoxicity control for non-replicating M. tuberculosis project (AID 489025). Format: functional.
For the next test, the system named is HeLa. The test is described as follows: HeLa cell cytotoxicity, dose response, cytotoxicity control for MITF activator project, CellTiter-Glo luminescence, cherry-pick samples (AID 540259). Format: functional, cell-based. The note with it: Homo sapiens. Background: ATP-based viability assays read luminescence as a measure of living cells.
Test [4] deals with T2, Sentrin-specific protease 6 (Homo sapiens, UniProt Q9GZR1).
T2 sequence (Q9GZR1 whole entry): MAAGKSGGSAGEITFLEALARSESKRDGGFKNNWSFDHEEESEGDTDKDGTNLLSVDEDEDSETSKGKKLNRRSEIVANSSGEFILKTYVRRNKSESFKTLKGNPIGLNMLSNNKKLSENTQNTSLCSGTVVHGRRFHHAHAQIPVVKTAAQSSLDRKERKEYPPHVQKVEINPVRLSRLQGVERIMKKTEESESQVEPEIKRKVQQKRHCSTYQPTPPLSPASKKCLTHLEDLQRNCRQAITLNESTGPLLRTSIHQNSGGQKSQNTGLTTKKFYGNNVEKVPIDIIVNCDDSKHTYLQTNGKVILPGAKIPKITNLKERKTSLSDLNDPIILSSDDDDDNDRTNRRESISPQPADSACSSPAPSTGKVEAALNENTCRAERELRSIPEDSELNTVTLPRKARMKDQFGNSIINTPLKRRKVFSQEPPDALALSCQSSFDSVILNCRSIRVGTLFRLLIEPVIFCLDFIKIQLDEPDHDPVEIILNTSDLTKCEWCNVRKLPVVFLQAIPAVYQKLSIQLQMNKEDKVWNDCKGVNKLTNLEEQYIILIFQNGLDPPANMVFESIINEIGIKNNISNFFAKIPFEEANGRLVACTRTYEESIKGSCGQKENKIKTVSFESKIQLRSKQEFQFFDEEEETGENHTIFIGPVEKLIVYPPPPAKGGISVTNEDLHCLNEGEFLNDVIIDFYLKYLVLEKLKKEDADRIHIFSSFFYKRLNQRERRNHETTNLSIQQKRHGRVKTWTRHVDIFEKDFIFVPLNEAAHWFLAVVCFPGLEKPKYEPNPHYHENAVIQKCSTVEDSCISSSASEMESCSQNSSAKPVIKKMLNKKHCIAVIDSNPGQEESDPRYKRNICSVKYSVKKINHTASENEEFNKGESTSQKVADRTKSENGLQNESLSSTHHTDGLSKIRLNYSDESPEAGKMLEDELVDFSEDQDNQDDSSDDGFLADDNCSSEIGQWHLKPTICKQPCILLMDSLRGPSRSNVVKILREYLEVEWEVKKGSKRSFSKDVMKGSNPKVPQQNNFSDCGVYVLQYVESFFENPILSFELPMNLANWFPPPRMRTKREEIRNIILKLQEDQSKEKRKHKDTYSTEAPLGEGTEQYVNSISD
The test is classed as functional.

Test [5] has as its target T3, Sentrin-specific protease 7 (Homo sapiens, UniProt Q9BQF6).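 Note: Luminescence-based dose-response confirmation of ultra-high-throughput screening hits, measuring inhibition of SENP7.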
T3 sequence (Q9BQF6 whole entry): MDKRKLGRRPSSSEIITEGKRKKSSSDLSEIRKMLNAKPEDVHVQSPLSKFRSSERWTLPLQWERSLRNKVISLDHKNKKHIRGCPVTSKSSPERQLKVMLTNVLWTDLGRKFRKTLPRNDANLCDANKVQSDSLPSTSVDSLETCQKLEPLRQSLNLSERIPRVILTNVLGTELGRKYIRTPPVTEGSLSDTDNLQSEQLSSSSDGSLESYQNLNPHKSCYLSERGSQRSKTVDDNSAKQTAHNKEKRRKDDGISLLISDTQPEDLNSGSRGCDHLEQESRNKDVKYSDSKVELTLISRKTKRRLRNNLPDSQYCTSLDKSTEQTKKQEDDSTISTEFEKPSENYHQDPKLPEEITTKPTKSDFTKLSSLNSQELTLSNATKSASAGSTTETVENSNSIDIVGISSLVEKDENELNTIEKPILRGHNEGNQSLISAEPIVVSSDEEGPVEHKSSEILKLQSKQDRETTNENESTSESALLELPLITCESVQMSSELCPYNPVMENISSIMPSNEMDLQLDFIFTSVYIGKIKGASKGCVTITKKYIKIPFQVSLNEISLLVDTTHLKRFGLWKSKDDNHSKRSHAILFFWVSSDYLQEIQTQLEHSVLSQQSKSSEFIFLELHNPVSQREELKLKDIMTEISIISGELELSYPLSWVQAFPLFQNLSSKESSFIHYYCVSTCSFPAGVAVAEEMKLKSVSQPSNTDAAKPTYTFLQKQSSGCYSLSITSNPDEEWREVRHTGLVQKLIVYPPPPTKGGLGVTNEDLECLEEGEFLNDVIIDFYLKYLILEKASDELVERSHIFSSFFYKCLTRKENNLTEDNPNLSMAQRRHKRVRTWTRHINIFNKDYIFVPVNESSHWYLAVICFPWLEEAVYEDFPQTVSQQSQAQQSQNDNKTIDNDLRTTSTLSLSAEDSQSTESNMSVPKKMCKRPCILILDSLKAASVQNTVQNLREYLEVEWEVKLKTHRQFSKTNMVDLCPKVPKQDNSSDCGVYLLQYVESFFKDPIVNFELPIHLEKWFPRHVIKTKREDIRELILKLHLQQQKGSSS
Format: functional.

The target of test [6] is T4, Sentrin-specific protease 8 (Homo sapiens, UniProt Q96LD8).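 Note: luminescence read-out of SENP8 inhibition, dose-response confirmation following an ultra-high-throughput screen.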
T4 sequence (Q96LD8 whole entry): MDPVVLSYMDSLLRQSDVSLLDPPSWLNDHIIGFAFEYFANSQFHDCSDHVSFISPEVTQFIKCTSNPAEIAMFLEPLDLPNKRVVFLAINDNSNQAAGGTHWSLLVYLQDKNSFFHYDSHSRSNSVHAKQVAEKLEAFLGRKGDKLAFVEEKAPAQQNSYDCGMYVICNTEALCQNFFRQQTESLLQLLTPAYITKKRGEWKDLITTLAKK
Format: functional.

Another test addresses T5, Caspase-3 (Homo sapiens, UniProt P42574).
T5 sequence (P42574 whole entry): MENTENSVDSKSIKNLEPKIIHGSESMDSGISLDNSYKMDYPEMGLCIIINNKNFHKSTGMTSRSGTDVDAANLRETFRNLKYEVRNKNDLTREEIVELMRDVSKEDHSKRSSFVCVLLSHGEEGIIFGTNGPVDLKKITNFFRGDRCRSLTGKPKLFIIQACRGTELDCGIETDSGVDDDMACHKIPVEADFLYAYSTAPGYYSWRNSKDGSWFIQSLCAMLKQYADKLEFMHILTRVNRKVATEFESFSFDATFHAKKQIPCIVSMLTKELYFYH
The test is classed as functional.

In test [7] the target is T6, Short transient receptor potential channel 4 (Mus musculus, UniProt Q9QUQ5).
T6 sequence (Q9QUQ5 whole entry): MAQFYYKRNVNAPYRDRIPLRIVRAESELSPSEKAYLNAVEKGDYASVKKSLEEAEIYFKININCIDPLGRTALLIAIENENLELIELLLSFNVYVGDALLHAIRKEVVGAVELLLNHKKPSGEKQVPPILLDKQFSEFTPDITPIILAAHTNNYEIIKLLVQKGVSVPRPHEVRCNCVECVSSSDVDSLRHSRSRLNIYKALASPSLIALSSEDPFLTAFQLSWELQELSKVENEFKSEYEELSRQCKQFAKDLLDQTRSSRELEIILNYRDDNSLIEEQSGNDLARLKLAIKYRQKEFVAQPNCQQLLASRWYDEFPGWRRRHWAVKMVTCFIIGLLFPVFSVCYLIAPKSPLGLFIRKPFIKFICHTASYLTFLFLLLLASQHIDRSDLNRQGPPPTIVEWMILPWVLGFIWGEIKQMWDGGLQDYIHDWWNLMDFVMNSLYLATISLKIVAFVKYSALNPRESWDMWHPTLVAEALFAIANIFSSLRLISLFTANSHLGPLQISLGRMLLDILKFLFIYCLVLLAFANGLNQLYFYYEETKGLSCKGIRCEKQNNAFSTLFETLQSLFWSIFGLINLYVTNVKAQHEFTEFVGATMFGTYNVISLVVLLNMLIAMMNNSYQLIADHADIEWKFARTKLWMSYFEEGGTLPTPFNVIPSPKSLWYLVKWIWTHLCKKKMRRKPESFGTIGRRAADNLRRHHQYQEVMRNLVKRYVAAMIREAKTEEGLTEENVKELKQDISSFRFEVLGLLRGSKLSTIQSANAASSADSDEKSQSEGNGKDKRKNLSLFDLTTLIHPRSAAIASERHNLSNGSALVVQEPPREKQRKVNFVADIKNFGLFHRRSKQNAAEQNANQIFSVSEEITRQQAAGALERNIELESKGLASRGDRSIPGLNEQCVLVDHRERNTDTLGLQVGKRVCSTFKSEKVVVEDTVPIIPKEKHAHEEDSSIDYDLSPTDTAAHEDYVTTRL
Briefly: mouse TRPC4 channel activators, dose response, cell-based, HEK293 TRPC4/mu-opioid, Fluo-4 calcium (AID 434937). Format: functional.

The target in test [8] is Voltage-dependent T-type calcium channel subunit alpha-1H (Homo sapiens, UniProt O95180). Format: functional.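 Note: channel activity triggered by adding a high calcium stimulation buffer.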
Voltage-dependent T-type calcium channel subunit alpha-1H, sequence (O95180 whole entry): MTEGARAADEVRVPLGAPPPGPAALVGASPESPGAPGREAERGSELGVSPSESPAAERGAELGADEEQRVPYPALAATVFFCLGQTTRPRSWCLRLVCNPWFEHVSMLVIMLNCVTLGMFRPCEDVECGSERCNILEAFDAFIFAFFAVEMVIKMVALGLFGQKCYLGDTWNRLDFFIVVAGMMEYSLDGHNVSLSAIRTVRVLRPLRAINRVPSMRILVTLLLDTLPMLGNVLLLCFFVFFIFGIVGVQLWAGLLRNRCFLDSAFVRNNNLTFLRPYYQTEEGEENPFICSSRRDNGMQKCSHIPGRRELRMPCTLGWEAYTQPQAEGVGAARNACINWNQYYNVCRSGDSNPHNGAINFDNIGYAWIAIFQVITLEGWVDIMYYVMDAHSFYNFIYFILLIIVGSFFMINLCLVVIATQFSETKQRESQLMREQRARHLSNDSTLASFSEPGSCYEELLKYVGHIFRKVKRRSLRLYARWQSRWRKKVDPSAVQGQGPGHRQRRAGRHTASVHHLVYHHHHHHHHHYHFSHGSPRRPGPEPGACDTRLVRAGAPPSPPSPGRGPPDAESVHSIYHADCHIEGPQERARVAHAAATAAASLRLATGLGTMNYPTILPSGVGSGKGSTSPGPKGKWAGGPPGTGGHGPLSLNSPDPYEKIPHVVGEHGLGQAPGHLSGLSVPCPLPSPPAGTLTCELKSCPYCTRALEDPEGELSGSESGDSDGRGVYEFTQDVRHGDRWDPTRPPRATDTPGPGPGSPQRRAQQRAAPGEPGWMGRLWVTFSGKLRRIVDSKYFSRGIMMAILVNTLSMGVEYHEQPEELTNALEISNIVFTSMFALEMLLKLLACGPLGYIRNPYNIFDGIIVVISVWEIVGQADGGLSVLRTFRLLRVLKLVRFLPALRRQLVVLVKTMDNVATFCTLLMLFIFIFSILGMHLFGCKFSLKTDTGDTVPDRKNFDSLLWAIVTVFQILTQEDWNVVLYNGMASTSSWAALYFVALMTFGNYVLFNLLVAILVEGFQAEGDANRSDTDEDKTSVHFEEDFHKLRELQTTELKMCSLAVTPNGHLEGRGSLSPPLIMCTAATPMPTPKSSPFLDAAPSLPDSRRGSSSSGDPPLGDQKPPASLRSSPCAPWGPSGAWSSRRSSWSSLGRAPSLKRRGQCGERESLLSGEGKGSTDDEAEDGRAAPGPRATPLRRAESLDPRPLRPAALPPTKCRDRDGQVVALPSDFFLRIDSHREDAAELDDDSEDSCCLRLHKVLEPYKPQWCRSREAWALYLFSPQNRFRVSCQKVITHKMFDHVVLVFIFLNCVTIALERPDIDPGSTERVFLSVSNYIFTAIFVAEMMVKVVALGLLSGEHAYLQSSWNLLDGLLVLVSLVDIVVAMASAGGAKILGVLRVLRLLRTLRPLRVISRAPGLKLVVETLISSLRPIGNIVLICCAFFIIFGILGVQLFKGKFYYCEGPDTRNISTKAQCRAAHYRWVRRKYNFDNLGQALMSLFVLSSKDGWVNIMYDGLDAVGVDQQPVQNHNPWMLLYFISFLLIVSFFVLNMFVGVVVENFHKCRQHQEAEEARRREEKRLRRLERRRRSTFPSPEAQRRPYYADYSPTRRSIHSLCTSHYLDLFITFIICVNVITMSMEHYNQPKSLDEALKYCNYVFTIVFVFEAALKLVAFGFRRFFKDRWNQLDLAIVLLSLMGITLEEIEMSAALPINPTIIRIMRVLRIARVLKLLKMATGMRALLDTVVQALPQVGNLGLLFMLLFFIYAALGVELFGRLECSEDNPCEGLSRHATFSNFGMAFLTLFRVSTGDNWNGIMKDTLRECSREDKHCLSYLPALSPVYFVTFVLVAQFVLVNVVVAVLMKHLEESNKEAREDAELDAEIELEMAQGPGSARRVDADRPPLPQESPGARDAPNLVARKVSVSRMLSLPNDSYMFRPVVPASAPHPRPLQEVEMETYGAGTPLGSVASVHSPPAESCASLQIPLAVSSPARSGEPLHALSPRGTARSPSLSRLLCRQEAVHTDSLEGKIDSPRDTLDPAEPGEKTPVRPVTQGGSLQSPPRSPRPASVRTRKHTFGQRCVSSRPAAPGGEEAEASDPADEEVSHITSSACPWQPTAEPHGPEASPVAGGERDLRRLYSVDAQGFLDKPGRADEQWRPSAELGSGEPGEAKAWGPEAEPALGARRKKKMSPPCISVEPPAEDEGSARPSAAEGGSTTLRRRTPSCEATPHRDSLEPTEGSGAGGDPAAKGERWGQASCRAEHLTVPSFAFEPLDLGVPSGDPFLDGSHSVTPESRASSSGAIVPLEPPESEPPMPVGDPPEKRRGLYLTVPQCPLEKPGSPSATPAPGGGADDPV
A short description of test [9]: Luminescence Cell-Based Dose Retest to Confirm Inhibitors of Cancer Stem Cells. [Related pubchem assays (depositor defined):AID2717, AID2721]. Format: functional. The note with it: Homo sapiens.
Test [10] addresses Beta-2 adrenergic receptor (Homo sapiens, UniProt P07550). The test is described as follows: beta2AR agonists driving receptor internalization, dose response, cell-based, FAP fluorogen, flow cytometry, cherry pick 1 (AID 588763). The test is classed as functional.

Active and inactive are the calls of the source. Where only a bound is given, the exact number is not on record here.

Beta-2 adrenergic receptor, sequence (P07550 whole entry): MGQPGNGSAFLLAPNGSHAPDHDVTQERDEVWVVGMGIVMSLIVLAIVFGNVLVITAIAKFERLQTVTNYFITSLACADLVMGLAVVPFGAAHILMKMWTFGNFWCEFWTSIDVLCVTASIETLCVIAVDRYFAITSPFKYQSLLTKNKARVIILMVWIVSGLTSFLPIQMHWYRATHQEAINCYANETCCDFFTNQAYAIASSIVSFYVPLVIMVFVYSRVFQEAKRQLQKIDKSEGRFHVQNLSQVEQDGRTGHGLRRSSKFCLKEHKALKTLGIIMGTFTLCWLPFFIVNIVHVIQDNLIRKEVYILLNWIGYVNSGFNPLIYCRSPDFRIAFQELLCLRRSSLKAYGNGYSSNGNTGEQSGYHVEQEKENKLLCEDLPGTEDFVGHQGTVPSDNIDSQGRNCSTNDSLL

For orientation: IC50 means the concentration that inhibits the measured activity by half. On to `O=C(Cn1sc2ccccc2c1=O)N1CCOCC1`, for which the IC50 on Hexokinase was > 25 µM (inactive).

Broadly, the CC50 is the concentration giving 50% cytotoxicity. As to `CN(C)c1c2ccccc2nc2c(F)c(F)c(F)c(F)c12`, the CC50 in test [1] is > 20 µM (active); in [2] it was > 20 µM (active); in test [3], 22.9 µM (active). In addition, the IC50 in the test “cells” was 17.7 µM (active).

One may read the AC50 as the concentration giving half of the maximal activity seen. With `O=C(Nc1ccc2c(c1)CCC2)C1CCCN(c2ncccn2)C1` (stereo unspecified), in the test on HeLa, the AC50 is 104 µM (active).

Consider `O=C(/C=C/c1ccco1)Nc1ccc(N2CCCC2)cc1`, for which the IC50 (in [4]; in test [5]; in test [6]; at Caspase-3) was > 100 µM (inactive) throughout.

As usually defined, the EC50 is the concentration that produces a half-maximal response. For the compound `CCn1c(=O)cc(OCC(=O)NCCCN2CC(C)CC(C)C2)c2ccccc21` (stereo unspecified), the EC50 in test [7] was 0.473 µM (active).

Consider `CC(CCc1ccccc1)NC(=O)CN1CCN(Cc2ccc(Cl)cc2)C1=O` (stereo unspecified), for which the 50% effective concentration (EC50) in [8] was 4.5 µM (active).

Take `CC1CC(C)CN(CCCNC(=O)c2csc3c2CCCCC3)C1` (stereo unspecified): the 50% effective concentration (EC50) in [7] was 4.73 µM (active).

With `O=C(NCc1ccc2c(c1)OCO2)c1ccc(CN2CCc3ccccc3C2)cc1`, the concentration giving a half-maximal response (EC50) in test [8] is 7.5 µM (active).

As for `Brc1ccc(/C=N/Nc2ccccc2)cc1`, the concentration at half-maximal activity (AC50) in test [9] is 3.98 µM (active); in the test with HeLa, 65.5 µM (active).

On to `N#Cc1ccccc1NC(=O)Cn1sc2ccccc2c1=O`, for which the IC50 on Hexokinase is 7.21 µM (active).

`COc1ccc(C(C)=O)cc1COc1ccc(Cl)cc1Cl`: in test [10], the EC50 is 2.67 µM (active).

For the compound `Cc1ccc(Sc2cc(N3CCOCC3)nc(-c3ccccc3)n2)cc1`, the concentration for a half-maximal effect (EC50) in test [10] was 4.82 µM (active).

On to `Cc1ccc(C(=O)Nc2cc(Cl)ccc2C(=O)O)c(C)c1`, for which the IC50 at Hexokinase was > 25 µM (inactive).

Turning to `CCCNC(=O)Nc1nc2ccccc2s1`, in the test on HeLa, the AC50 was 191 µM (active).

Consider `Brc1ccc(/C=N/Nc2ccccn2)cc1`, for which the IC50 in test [4] is 4.07 µM (active); in test [5], 2.96 µM (active); in [6] it was > 100 µM (inactive); at Caspase-3, 15.8 µM (active).

With `COc1cc(OC)cc(-c2cc3cc(F)ccc3cn2)c1`, the half-maximal activity concentration (AC50) with HeLa is 50.6 µM (active).
